Assays:
full-thickness wounds = experiment: Wound healing: topical application to full-thickness wounds on the back of mice; format: in vivo; conditions: 5 mm full-thickness wounds
Method: FIG. 1A-1B. Prostaglandin transporter (PGT) inhibitors accelerate wound healing. […] B. Averaged wound areas of 4 mice, each of them had 2 wounds and received topically applied vehicle Veh1 (2% DMSO+2% cremophor in water) on one wound and T26A on the other. On the wounds of a separate group of 4 mice, vehicle Veh2 (2% EtOH) was applied to one wound and 200 μM PGE2 was applied to the other.
Studies were conducted using compound T26A (Table 1). Two full-thickness wounds with diameter of 5 mm were created on the back of mice symmetrically under the shoulder blades. 50 μL vehicle (2% DMSO+2% cremophor in water) was applied to one wound (FIG. 1A, top panel), and that of 2 mM T26A was applied to the other (FIG. 1A, bottom panel), immediately after surgery and every other day afterwards. […] On the wounds of a separate group of 4 mice, vehicle Veh2 (2% EtOH, yellow) was applied to one wound and 200 μM PGE2 (green) was applied to the other. Results were statistically significant (p<0.05, T26A vs. vehicle).

rat PGT = rat PGT (Rattus norvegicus (Rat), UniProt Q00910); experiment: [3H]PGE2 uptake inhibition in MDCK cells stably transfected with rat PGT (percent inhibition and IC50); format: cell-based; conditions: for Inh (% of Ctl) 0.5 μM: 0.5 μM compound; for IC50: [3H]PGE2 uptake, MDCK cells stably transfected with rat PGT; for Inh (% of Ctl) 0.1 μM: 0.1 μM compound; for Inh (% of Ctl) 1 μM: 1 μM compound; for Inh (% of Ctl) 2.5 μM: 2.5 μM compound; for Inh (% of Ctl) 5 μM: 5 μM compound
In short: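 Rat PGT-transfected MDCK cells, on day 4 after seeding, took up [3H]PGE2 in Waymouth buffer at room temperature, with compound (EtOH stock diluted in buffer) added immediately before tracer. Intracellular radioactivity counted after lysis; percent inhibition versus vehicle, IC50 by fitting y=m1−m1*(m0/(m2+m0)).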

Inh (% of Ctl) 0.5 μM (rat PGT; inhibition of [3H]PGE2 uptake)	IC50 (rat PGT) [nM]	Inh (% of Ctl) 0.1 μM (rat PGT; inhibition of [3H]PGE2 uptake)	Inh (% of Ctl) 1 μM (rat PGT; inhibition of [3H]PGE2 uptake)	Inh (% of Ctl) 10 μM (rat PGT; 10 μM compound, inhibition of [3H]PGE2 uptake)	Inh (% of Ctl) 2.5 μM (rat PGT; inhibition of [3H]PGE2 uptake)	Inh (% of Ctl) 5 μM (rat PGT; inhibition of [3H]PGE2 uptake)	Structure (SMILES)	vascularization and blood flow in the wound (full-thickness wounds; 2 mM T26A applied topically)	wound healing (wound area) (full-thickness wounds; 50 μL of 2 mM T26A topically immediately after surgery and every other day, 10 day period, vs vehicle (2% DMSO+2% cremophor in water), p<0.05 T26A vs. vehicle)
72.65 % of Ctl	378	–	–	–	–	–	[N-]=[N+]=NCCOCCOCCNC(=O)c1ccc(Nc2nc(NCCOCCOCCNC(=O)c3ccccc3)nc(Nc3ccc(O)cc3)n2)cc1 [T26A, reference compound]	increased vascularization and blood flow in the wound	accelerates wound healing
28.4 % of Ctl	–	13.2 % of Ctl	49.6 % of Ctl	–	–	–	O=C(NCCOCCNc1nc(Nc2ccc(O)cc2)nc(Nc2ccc(C(=O)NCc3ccccc3)cc2)n1)c1ccncc1 [compound 135]	–	–
52.3 % of Ctl	–	17.0 % of Ctl	70.2 % of Ctl	–	–	–	O=C(NCCOCCOCCNc1nc(Nc2ccc(O)cc2)nc(Nc2ccc(C(=O)NCc3cc(F)ccc3F)cc2)n1)c1ccccc1 [compound 127]	–	–
–	–	–	32.4 % of Ctl	79.0 % of Ctl	–	–	COc1cccc(C(=O)NCCOCCOCCNc2nc(Nc3ccccc3)nc(Nc3ccc(O)cc3)n2)c1 [compound 37]	–	–
49.2 % of Ctl	–	36.8 % of Ctl	–	–	84.1 % of Ctl	92.4 % of Ctl	O=C(NCCOCCOCCNc1nc(Nc2ccc(O)cc2)nc(Nc2ccc(C(=O)NCc3ccc(C(F)(F)F)cc3)cc2)n1)c1ccccc1 [compound 113]	–	–
64.6 % of Ctl	47.5	67.9 % of Ctl	–	–	81 % of Ctl	92.45 % of Ctl	O=C(NCCOCCOCCNc1nc(Nc2ccc(O)cc2)nc(Nc2ccc(C(=O)NCc3cccc(F)c3)cc2)n1)c1ccccc1 [compound 105]	–	–
22.1 % of Ctl	–	15.0 % of Ctl	32.4 % of Ctl	–	–	–	N[C@@H](C(=O)NCCOCCNc1nc(Nc2ccc(O)cc2)nc(Nc2ccc(C(=O)NCc3ccccc3)cc2)n1)c1ccccc1 [compound 132]	–	–

Source: US8952150B2, “Prostaglandin transporter inhibitors and uses thereof” (Albert Einstein College of Medicine of Yeshiva University, priority 2009, dated 2015)
